Active and inactive are the calls of the source.
Tests used:
[1] = target: Glyceraldehyde-3-phosphate dehydrogenase (Homo sapiens, UniProt P04406)
[2] = target: T1, Bcl-2-related protein A1 (Mus musculus, UniProt Q07440); test: Bfl-1 binding inhibitors, SAR follow-up, biochemical, fluorescence polarization (AID 1070)
T1 sequence (Q07440 whole entry): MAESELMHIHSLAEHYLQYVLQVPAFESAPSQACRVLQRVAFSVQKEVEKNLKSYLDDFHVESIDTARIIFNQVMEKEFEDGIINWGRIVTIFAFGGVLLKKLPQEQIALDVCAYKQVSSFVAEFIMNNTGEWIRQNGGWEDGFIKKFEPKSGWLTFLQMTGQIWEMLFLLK

[3] = target: T1, Bcl-2-related protein A1; test: Bfl-1 inhibitors blocking BH3 peptide binding, confirmation, biochemical, TR-FRET, mouse Bfl-1 (AID 621);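 note: TR-FRET binding of GST-Bfl-1 to FITC-labelled Bid peptide via terbium antibody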
[4] = target: Protein-tyrosine kinase 2-beta (Homo sapiens, UniProt Q14289);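 note: potency of inhibitors of PYK2 kinase phosphorylation of poly-GT substrate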
Chain of Protein-tyrosine kinase 2-beta (Q14289 whole entry): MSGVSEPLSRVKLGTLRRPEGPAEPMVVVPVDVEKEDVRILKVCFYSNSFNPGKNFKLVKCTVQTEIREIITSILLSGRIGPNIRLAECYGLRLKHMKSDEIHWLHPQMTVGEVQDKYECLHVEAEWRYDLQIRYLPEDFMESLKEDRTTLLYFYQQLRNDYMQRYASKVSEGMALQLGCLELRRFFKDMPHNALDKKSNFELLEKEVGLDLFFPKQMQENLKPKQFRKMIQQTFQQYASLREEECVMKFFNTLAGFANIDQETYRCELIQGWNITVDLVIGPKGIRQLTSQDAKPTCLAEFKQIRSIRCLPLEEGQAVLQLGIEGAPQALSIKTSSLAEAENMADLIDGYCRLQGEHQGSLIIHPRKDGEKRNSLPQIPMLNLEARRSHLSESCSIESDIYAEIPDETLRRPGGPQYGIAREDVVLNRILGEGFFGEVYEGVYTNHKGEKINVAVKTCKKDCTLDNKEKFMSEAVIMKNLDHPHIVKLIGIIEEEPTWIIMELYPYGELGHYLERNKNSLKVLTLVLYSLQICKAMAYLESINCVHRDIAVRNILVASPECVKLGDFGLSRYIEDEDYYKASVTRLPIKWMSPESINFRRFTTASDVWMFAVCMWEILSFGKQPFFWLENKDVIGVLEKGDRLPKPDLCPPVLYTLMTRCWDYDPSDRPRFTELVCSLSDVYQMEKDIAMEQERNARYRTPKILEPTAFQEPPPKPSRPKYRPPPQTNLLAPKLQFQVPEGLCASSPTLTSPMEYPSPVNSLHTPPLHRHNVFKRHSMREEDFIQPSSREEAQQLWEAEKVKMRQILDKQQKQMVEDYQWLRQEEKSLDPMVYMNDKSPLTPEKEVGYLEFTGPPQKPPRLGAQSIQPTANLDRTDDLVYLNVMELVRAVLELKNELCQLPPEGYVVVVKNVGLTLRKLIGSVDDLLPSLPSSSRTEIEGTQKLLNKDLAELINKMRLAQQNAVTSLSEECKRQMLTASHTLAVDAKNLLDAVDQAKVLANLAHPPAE

[5] = target: T2, NADPH oxidase 1 (Homo sapiens, UniProt Q9Y5S8); format: functional, cell-based;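 note: Cell-based assay with luminescence read-out, IC50 derived from inhibitor dose-response curves; intracellular ROS from endogenous NOX1 in intact HT29 colon cancer cells; potency of inhibitors that lower the ROS luminescence signal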
T2 sequence (Q9Y5S8 whole entry): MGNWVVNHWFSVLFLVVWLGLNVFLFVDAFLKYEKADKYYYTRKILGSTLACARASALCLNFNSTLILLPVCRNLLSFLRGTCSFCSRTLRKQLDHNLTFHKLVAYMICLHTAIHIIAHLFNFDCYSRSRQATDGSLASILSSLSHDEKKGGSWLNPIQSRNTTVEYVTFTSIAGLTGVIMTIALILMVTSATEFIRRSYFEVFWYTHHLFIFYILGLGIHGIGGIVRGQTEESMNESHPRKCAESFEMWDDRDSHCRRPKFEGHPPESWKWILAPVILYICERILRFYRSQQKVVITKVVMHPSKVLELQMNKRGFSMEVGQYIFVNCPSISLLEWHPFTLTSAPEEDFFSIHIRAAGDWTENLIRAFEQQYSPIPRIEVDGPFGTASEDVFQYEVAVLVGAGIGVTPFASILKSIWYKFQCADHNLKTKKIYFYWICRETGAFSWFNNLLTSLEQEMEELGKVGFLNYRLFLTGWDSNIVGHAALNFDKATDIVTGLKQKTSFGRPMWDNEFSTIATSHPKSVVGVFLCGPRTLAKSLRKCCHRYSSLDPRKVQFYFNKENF

[6] = target: Epstein-Barr nuclear antigen 1 (Epstein-Barr virus (strain B95-8) (HHV-4) (Human herpesvirus 4), UniProt P03211); test: EBNA-1 inhibitors, dose response, biochemical, fluorescence polarization, 1536-well (AID 2381); parameters: species or system human gammaherpesvirus 4;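 note: fluorescence polarization of a Cy5 DNA probe bound by EBNA-1 protein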
Chain of Epstein-Barr nuclear antigen 1 (P03211 whole entry): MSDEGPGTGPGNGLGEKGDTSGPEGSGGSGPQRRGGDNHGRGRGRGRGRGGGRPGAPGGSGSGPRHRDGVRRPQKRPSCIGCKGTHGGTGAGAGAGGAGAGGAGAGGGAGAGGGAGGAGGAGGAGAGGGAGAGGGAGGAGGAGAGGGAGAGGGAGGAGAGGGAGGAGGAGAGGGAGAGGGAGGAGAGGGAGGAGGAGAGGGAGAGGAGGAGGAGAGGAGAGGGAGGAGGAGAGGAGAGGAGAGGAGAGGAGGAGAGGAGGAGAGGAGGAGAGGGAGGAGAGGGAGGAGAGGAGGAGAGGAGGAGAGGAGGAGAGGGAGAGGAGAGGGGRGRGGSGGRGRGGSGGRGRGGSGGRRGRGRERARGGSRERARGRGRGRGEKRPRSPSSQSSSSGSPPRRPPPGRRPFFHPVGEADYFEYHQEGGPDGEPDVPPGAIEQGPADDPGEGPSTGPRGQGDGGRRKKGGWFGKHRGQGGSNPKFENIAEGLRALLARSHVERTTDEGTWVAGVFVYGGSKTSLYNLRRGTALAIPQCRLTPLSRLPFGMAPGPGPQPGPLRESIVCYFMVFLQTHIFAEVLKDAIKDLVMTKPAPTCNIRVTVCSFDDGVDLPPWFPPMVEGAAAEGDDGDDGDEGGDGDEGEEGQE

[7] = target: Lytic switch protein BZLF1 (Epstein-Barr virus (strain B95-8) (HHV-4) (Human herpesvirus 4), UniProt P03206); test: EBV ZTA inhibitors, dose response, counter-screen for EBNA-1 inhibitor project, biochemical, fluorescence polarization, Epstein-Barr virus, 1536-well (AID 2377); parameters: species or system human gammaherpesvirus 4;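 note: fluorescence polarization of Cy5-labelled ZRE DNA probe bound by purified Zta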
Chain of Lytic switch protein BZLF1 (P03206 whole entry): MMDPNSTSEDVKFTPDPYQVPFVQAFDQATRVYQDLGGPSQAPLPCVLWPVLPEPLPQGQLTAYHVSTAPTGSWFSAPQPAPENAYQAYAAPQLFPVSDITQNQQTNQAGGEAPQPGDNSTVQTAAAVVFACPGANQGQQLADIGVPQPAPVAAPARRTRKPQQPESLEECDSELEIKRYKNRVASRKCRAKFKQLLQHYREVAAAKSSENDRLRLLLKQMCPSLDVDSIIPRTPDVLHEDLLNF

[8] = inhibitors of intracellular T. cruzi replication, confirmation, NIH3T3 host cells, beta-gal luminescence (AID 2044); format: functional, cell-based;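 note: intracellular parasites grown in NIH/3T3 mouse fibroblasts as host cells; luminescent beta-galactosidase reporter signal from transgenic T. cruzi replicating inside host cells; inhibitors lower the luminescence signal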
[9] = cytotoxicity toward NIH3T3 fibroblasts, dose response, counter-screen, cell-based, ATP luminescence, mouse fibroblasts (AID 2010); format: functional;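 note: cells exposed to compound for about 90 hours before reading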
[10] = cells
[11] = target: T3, Mannose-6-phosphate isomerase (Homo sapiens, UniProt P34949); test: human PMI inhibitors, high substrate, primary screen, biochemical, fluorescence intensity, high mannose 6-phosphate (AID 1220)
T3 sequence (P34949 whole entry): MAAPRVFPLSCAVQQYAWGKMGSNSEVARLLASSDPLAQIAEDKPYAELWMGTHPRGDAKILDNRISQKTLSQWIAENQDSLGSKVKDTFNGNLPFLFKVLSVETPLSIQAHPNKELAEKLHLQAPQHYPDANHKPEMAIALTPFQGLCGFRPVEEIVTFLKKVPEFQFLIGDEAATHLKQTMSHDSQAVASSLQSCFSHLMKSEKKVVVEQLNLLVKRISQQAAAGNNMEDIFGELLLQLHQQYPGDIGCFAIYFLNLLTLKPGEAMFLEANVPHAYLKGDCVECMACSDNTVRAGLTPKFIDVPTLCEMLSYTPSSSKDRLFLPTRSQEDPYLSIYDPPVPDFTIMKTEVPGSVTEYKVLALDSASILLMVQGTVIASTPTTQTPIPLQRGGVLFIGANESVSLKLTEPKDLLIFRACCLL

[12] = THP-1 cell cytotoxicity, dose response, cytotoxicity control for Vif-APOBEC3G degradation inhibitor project, THP-1 cells (AID 1117359); format: functional; settings: Human immunodeficiency virus 1, THP-1
[13] = test system: P388/ADR; test: cells; format: functional; settings: Mus musculus, P388/ADR
[14] = test system: P388; test: cells; format: functional; settings: Mus musculus, P388
[15] = Luminescence-based dose response cell-based high throughput screening assay for cytotoxic compounds using the IEC-6 intestinal epithelial cell line. [Related pubchem assays: 1858 (Summary AID.), 1825 (Counterscreen.), 1907 (Confirmation screen.)]; format: functional
[16] = test system: SN12K1; test: cells; format: functional; settings: Homo sapiens

Chain of Glyceraldehyde-3-phosphate dehydrogenase (P04406 whole entry): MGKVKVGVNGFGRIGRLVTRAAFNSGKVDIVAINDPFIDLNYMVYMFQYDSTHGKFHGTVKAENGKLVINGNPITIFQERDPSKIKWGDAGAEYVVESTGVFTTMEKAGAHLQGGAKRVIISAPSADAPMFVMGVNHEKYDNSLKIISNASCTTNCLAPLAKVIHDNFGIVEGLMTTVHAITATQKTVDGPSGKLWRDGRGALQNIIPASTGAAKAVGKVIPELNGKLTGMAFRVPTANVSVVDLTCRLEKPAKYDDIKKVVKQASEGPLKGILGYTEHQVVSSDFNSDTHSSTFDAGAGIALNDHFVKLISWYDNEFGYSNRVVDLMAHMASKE

**Q.** For `O=C1C(Cl)=C(N2CCOCC2)C(=O)N1c1ccc(Cl)nc1`, which IC50 [1] is on record?
**A.** Its IC50 is > 100 µM (not active).

**Q.** What about the IC50 [2] of the same compound?
**A.** Its IC50 is 12.6 µM (active).

**Q.** And the IC50 [3]?
**A.** Its IC50 is 15.1 µM (active).

**Q.** Which IC50 [4] does the source give for `N#Cc1cnn2c1nc(N1CCOCC1)c1ccccc12` here?
**A.** Its IC50 is > 69.5 µM (not active).

**Q.** For `O=[N+]([O-])c1cccc(-c2nc(-c3ccccc3)c(-c3ccccc3)[nH]2)c1`, which IC50 [5] is on record?
**A.** Its IC50 is > 17 µM (not active).

**Q.** Which results are given for `Cc1ccccc1OCCn1cc(/C=C(\C#N)C(=O)NCc2ccco2)c2ccccc21`?
**A.** IC50 [6]: 39.9 µM (not active); IC50 [7]: > 111 µM (not active)

**Q.** Which EC50 [8] does the source give for `CCCCc1c(CCC)c(=N)c2ccccc2n1C` here?
**A.** Its EC50 is < 0.1 µM (active).

**Q.** And the EC50 [9]?
**A.** The EC50 was > 60 µM (inconclusive).

**Q.** What about the EC50 [10] of the same compound?
**A.** The EC50 was 0.017 µM (active).

**Q.** For `COC1=C(N)C(=O)c2nc(-c3nc(C(=O)O)c(C)c(-c4ccc(OC)c(OC)c4O)c3N)ccc2C1=O` [STREPTONIGRIN], which IC50 [11] is on record?
**A.** The IC50 was > 50 µM (not active).

**Q.** And the CC50 [12]?
**A.** The CC50 was 2.96 µM (active).

**Q.** And the GI50 [13]?
**A.** The GI50 was 0.0287 µM (active).

**Q.** And the GI50 [14]?
**A.** Its GI50 is 0.0352 µM (active).

**Q.** And the IC50 [15]?
**A.** Its IC50 is 0.0094 µM (active).

**Q.** What about the GI50 [16] of the same compound?
**A.** Its GI50 is < 0.01 µM (active).

Reference: ChEMBL document CHEMBL1201862, “PubChem BioAssay data set” (2004)
